Source: ChEMBL document CHEMBL4342418, “1,2,3-Triazole-containing hybrids as potential anticancer agents: Current developments, action mechanisms and structure-activity relationships” (Eur J Med Chem, 2019)
One block for each molecule: values may come before it.

Experiments:
A549 [1] = experiment: cells; type: functional, cell-based; settings: Homo sapiens
Description: Antiproliferative activity against human A549 cells by MTT assay

HBL-100 = experiment: Antiproliferative activity against human HBL100 cells by MTT assay; type: functional, cell-based
HeLa [2] = experiment: Antiproliferative activity against human HeLa cells by MTT assay; type: functional, cell-based
SW1573 = experiment: Antiproliferative activity against human SW1573 cells by MTT assay; type: functional, cell-based
T47D = experiment: Antiproliferative activity against human T47D cells by MTT assay; type: functional, cell-based
WiDr = experiment: Antiproliferative activity against human WiDr cells by MTT assay; type: functional, cell-based
HepG2 [3] = experiment: Antiproliferative activity against human HepG2 cells by MTT assay; type: functional, cell-based
KB = experiment: Antiproliferative activity against human KB cells by MTT assay; type: functional, cell-based
MCF7 [4] = experiment: Antiproliferative activity against human MCF7 cells assessed as reduction in cell viability after 48 hrs by SRB assay; type: functional, cell-based; settings: MCF7, 48 h
HeLa [5] = experiment: Antiproliferative activity against human HeLa cells assessed as reduction in cell viability after 48 hrs by SRB assay; type: functional
HepG2 [6] = experiment: Antiproliferative activity against human HepG2 cells assessed as reduction in cell viability after 48 hrs by SRB assay; type: functional; settings: HepG2, 48 h
IMR-32 = experiment: Antiproliferative activity against human IMR32 cells assessed as reduction in cell viability after 48 hrs by SRB assay; type: functional; settings: IMR-32, 48 h
K562 = experiment: Antiproliferative activity against human K562 cells assessed as reduction in cell viability after 24 hrs by MTT assay; type: functional, cell-based; settings: K562, 24 h
PC-3 = experiment: Antiproliferative activity against human PC3 cells assessed as reduction in cell viability after 24 hrs by MTT assay; type: functional, cell-based; settings: PC-3, 24 h
A-431 = experiment: Antiproliferative activity against human A431 cells assessed as reduction in cell viability after 24 hrs by MTT assay; type: functional, cell-based; settings: A-431, 24 h
MDA-MB-231 [7] = experiment: Antiproliferative activity against human MDA-MB-231 cells assessed as reduction in cell viability after 24 hrs by MTT assay; type: functional, cell-based; settings: MDA-MB-231, 24 h
COLO 205 = experiment: Antiproliferative activity against human COLO205 cells assessed as reduction in cell viability after 24 hrs by MTT assay; type: functional, cell-based; settings: COLO 205, 24 h
A549 [8] = experiment: Antiproliferative activity against human A549 cells assessed as reduction in cell viability after 24 hrs by MTT assay; type: functional, cell-based; settings: A549, 24 h
MCF7 [9] = experiment: cells; type: functional, cell-based; settings: Homo sapiens
Description: Antiproliferative activity against human MCF7 cells by MTT assay

MDA-MB-231 [10] = experiment: Antiproliferative activity against human MDA-MB-231 cells by MTT assay; type: functional, cell-based

Compound: Cc1ccc(-c2c(OCc3cn(Cc4ccccc4Br)nn3)cnn2-c2ccc(F)cc2)cc1
GI50 (MCF7 [4]): 1.8 to 9.7 µM
GI50 (HeLa [5]): 1.8 to 9.7 µM
GI50 (HepG2 [6]): 1.8 to 9.7 µM
GI50 (IMR-32): 1.8 to 9.7 µM

Compound: Cc1ccc(-c2c(OCc3cn(Cc4ccccc4Cl)nn3)cnn2-c2ccc(F)cc2)cc1
GI50 (MCF7 [4]): 1.8 to 9.7 µM
GI50 (HeLa [5]): 1.8 to 9.7 µM
GI50 (HepG2 [6]): 1.8 to 9.7 µM
GI50 (IMR-32): 1.8 to 9.7 µM

Compound: O=[N+]([O-])c1ccc(Cn2cc(COc3cnn(-c4ccc(F)cc4)c3-c3ccc(Cl)cc3)nn2)cc1
GI50 (MCF7 [4]): 1.8 to 9.7 µM
GI50 (HeLa [5]): 1.8 to 9.7 µM
GI50 (HepG2 [6]): 1.8 to 9.7 µM
GI50 (IMR-32): 1.8 to 9.7 µM

Compound: Fc1ccc(-n2ncc(OCc3cn(Cc4ccccc4)nn3)c2-c2ccc(Cl)cc2)cc1
GI50 (MCF7 [4]): 1.8 to 3.8 µM
GI50 (HeLa [5]): 1.8 to 3.8 µM
GI50 (HepG2 [6]): 1.8 to 3.8 µM
GI50 (IMR-32): 1.8 to 3.8 µM

Compound: Cc1cn([C@H]2C[C@H](n3cc(CCOC(=O)CCC(=O)O[C@@H]4O[C@@H]5O[C@@]6(C)CC[C@H]7[C@H](C)CC[C@@H]([C@H]4C)[C@@]57OO6)nn3)[C@@H](CO)O2)c(=O)[nH]c1=O
IC50 (HepG2 [3]): 44.3 µM
IC50 (KB): 16.5 µM

Compound: COc1ccc(-n2cc(CO[C@H]3O[C@@H]4O[C@@]5(C)CC[C@H]6[C@H](C)CC[C@@H]([C@H]3C)[C@@]46OO5)nn2)cc1
IC50 (K562): 4.06 to 89.9 µM
IC50 (PC-3): 4.06 to 89.9 µM
IC50 (A-431): 4.06 to 89.9 µM
IC50 (MDA-MB-231 [7]): 4.06 to 89.9 µM
IC50 (COLO 205): 4.06 to 89.9 µM
IC50 (A549 [8]): 4.06 to 89.9 µM

Compound: COc1ccc(Cn2cc(COc3cnn(-c4ccc(F)cc4)c3-c3ccc(C)cc3)nn2)cc1
GI50 (MCF7 [4]): 1.8 to 9.7 µM
GI50 (HeLa [5]): 1.8 to 9.7 µM
GI50 (HepG2 [6]): 1.8 to 9.7 µM
GI50 (IMR-32): 1.8 to 9.7 µM

Compound: C[C@H]1[C@@H](OCc2cn(-c3ccc([N+](=O)[O-])cc3)nn2)O[C@@H]2O[C@@]3(C)CC[C@H]4[C@H](C)CC[C@@H]1[C@@]24OO3
IC50 (K562): 4.06 to 89.9 µM
IC50 (PC-3): 4.06 to 89.9 µM
IC50 (A-431): 4.06 to 89.9 µM
IC50 (MDA-MB-231 [7]): 4.06 to 89.9 µM
IC50 (COLO 205): 4.06 to 89.9 µM
IC50 (A549 [8]): 4.06 to 89.9 µM

Compound: C[C@@H]1CC[C@H]2[C@@H](C)C(=O)O[C@@H]3O[C@@]4(C)CC[C@@H]1[C@]32OO4 [ARTEMISININ]
IC50 (K562): 39 to 68.8 µM
IC50 (PC-3): 39 to 68.8 µM
IC50 (A-431): 39 to 68.8 µM
IC50 (MDA-MB-231 [7]): 39 to 68.8 µM
IC50 (COLO 205): 39 to 68.8 µM
IC50 (A549 [8]): 39 to 68.8 µM

Compound: Cc1ccc(-n2cc(OCc3cn(Cc4ccccc4Cl)nn3)cn2)cc1
GI50 (MCF7 [4]): 1.8 to 9.7 µM
GI50 (HeLa [5]): 1.8 to 9.7 µM
GI50 (HepG2 [6]): 1.8 to 9.7 µM
GI50 (IMR-32): 1.8 to 9.7 µM

Compound: Cc1c(C(=O)Nc2ccccc2)nnn1-c1ccnc2cc(Cl)ccc12
IC50 (MCF7 [9]): 31.7 µM
IC50 (MDA-MB-231 [10]): 19.1 µM

Compound: Cc1ccc(-n2cc(OCc3cn(Cc4ccccc4Br)nn3)cn2)cc1
GI50 (MCF7 [4]): 1.8 to 9.7 µM
GI50 (HeLa [5]): 1.8 to 9.7 µM
GI50 (HepG2 [6]): 1.8 to 9.7 µM
GI50 (IMR-32): 1.8 to 9.7 µM

Continued, in another order:

IC50 (A549 [1]): 3.1 to 88 µM
IC50 (HeLa [2]): 3.1 to 88 µM
IC50 (SW1573): 3.1 to 88 µM
IC50 (T47D): 3.1 to 88 µM
Compound: CCC(C)[C@@H](c1nc(C(=O)OC)co1)n1cc(CC2CC(CCc3ccccc3)CC(O[Si](C)(C)C(C)(C)C)C2)nn1 (some centres not stated)
IC50 (HBL-100): 3.1 to 88 µM
IC50 (WiDr): 3.1 to 88 µM

IC50 (HepG2 [3]): > 400 µM
IC50 (KB): > 400 µM
Compound: Cc1cn([C@H]2C[C@H](N=[N+]=[N-])[C@@H](CO)O2)c(=O)[nH]c1=O [ZIDOVUDINE]

IC50 (A549 [1]): 3.1 to 88 µM
IC50 (HeLa [2]): 3.1 to 88 µM
IC50 (SW1573): 3.1 to 88 µM
IC50 (T47D): 3.1 to 88 µM
Compound: CCC(C)[C@@H](c1nc(C(=O)OC)co1)n1cc(CC2CC(O[Si](C)(C)C(C)(C)C)CC(C(C)C)C2)nn1 (some centres not stated)
IC50 (HBL-100): 3.1 to 88 µM
IC50 (WiDr): 3.1 to 88 µM

IC50 (K562): 4.06 to 89.9 µM
IC50 (PC-3): 4.06 to 89.9 µM
IC50 (A-431): 4.06 to 89.9 µM
IC50 (MDA-MB-231 [7]): 4.06 to 89.9 µM
IC50 (COLO 205): 4.06 to 89.9 µM
IC50 (A549 [8]): 4.06 to 89.9 µM
Compound: C[C@H]1[C@@H](OCc2cn(-c3ccc(C#N)cc3)nn2)O[C@@H]2O[C@@]3(C)O[C@]24[C@H]1CC[C@@H](C)[C@@H]4C[C@H]3O

IC50 (A549 [1]): 3.1 to 88 µM
IC50 (HeLa [2]): 3.1 to 88 µM
IC50 (SW1573): 3.1 to 88 µM
IC50 (T47D): 3.1 to 88 µM
Compound: CCCC1CC(Cc2cn([C@H](c3nc(C(=O)OC)co3)C(C)CC)nn2)CC(O[Si](C)(C)C(C)(C)C)C1 (some centres not stated)
IC50 (HBL-100): 3.1 to 88 µM
IC50 (WiDr): 3.1 to 88 µM

IC50 (A549 [1]): 3.1 to 88 µM
IC50 (HeLa [2]): 3.1 to 88 µM
IC50 (SW1573): 3.1 to 88 µM
IC50 (T47D): 3.1 to 88 µM
Compound: CCCC1CC(Cc2cn(Cc3nc(C(=O)OC)co3)nn2)CC(O[Si](C)(C)C(C)(C)C)C1 (configuration not stated)
IC50 (HBL-100): 3.1 to 88 µM
IC50 (WiDr): 3.1 to 88 µM
